Reference: ChEMBL document CHEMBL1201862, “PubChem BioAssay data set” (2004)
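48-hour exposure; five concentrations; linearly interpolated endpoints. GI50 is the concentration that inhibits growth by half.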 Active and inactive are the calls of the source. Cut-off read from the data, not from the text of the source: active = GI50 up to about 1.1 µM and inactive = higher.

Experiments:
Test in all cases: DTP human tumour cell line panel, 48 h
[1] = test system: OVCAR-4
[2] = test system: SK-OV-3
[3] = test system: NCI-H522
[4] = test system: LOX IMVI
[5] = test system: MDA-MB-231
[6] = test system: SW-620
[7] = test system: BT-549
[8] = test system: PC-3
[9] = test system: HCT-116
[10] = test system: IGROV-1
[11] = test system: HOP-92
[12] = test system: EKVX
[13] = test system: COLO 205
[14] = test system: HT-29
[15] = test system: UACC-257
[16] = test system: RPMI-8226
[17] = test system: K562
[18] = test system: HCC 2998
[19] = test system: A498

Measured: GI50

O=C1CCC(Cc2ccc(Cl)cc2Cl)C(=O)N1 (configuration not stated)
inactive: [1] > 100 µM | [2] > 100 µM | [3] 66.7 µM | [4] > 100 µM | [5] 51.8 µM | [6] > 100 µM | [7] 28.6 µM | [8] > 100 µM | [9] > 100 µM | [10] > 100 µM | [11] > 100 µM | [12] 65 µM | [13] > 100 µM | [14] > 100 µM | [15] > 100 µM | [16] 79.4 µM | [17] > 100 µM

COC(=O)c1ccc(C)cc1CC1Cc2cccc(C)c2C1=O (configuration not stated)
inactive: [1] 19.2 µM | [18] 9.59 µM | [2] 8.05 µM | [3] 2.37 µM | [4] 2.88 µM | [5] 7.1 µM | [6] 3.72 µM | [7] 9.77 µM | [8] 8.34 µM | [9] 3.68 µM | [10] 7.96 µM | [11] 16 µM | [12] 2.94 µM | [13] 4.9 µM | [14] 2.42 µM | [15] 11.7 µM | [17] 2.77 µM

CO[C@]12CC(=O)C3(C(C[C@H]4CC5CC[C@H]6C[C@@H](OC(C)=O)CC[C@]6(OC(C)=O)C5C[C@@]43C)C1)C1C[C@H]3[C@@H]4CC[C@H]5C[C@@H](OC(C)=O)CC[C@]5(OC(C)=O)[C@H]4CC[C@]3(C)C12 (some centres not stated)
inactive: [1] 17.1 µM | [18] 59.2 µM | [2] > 100 µM | [4] 89.7 µM | [5] > 100 µM | [6] > 100 µM | [8] 50.8 µM | [9] 42.5 µM | [19] > 100 µM | [10] > 100 µM | [11] > 100 µM | [12] > 100 µM | [13] 40.5 µM | [14] 82.4 µM | [15] > 100 µM | [16] 37.2 µM | [17] 54.6 µM

CC1=C(C(N)=O)C(c2ccncc2)C(C#N)C(=O)N1 (configuration not stated)
inactive: [1] > 100 µM | [18] > 100 µM | [2] > 100 µM | [4] > 100 µM | [5] > 100 µM | [6] > 100 µM | [8] > 100 µM | [9] > 100 µM | [19] > 100 µM | [10] > 100 µM | [11] > 100 µM | [12] > 100 µM | [13] > 100 µM | [15] > 100 µM | [16] > 100 µM | [17] > 100 µM

CCOC(=O)c1sc2c(c1OC(=O)c1cc(OC)c(OC)c(OC)c1)c(=O)n(-c1ccccc1)c(=S)n2-c1ccccc1
inactive: [1] 70.8 µM | [18] 81.3 µM | [2] > 100 µM | [3] 4.81 µM | [4] > 100 µM | [5] 56.6 µM | [6] > 100 µM | [8] 63.5 µM | [9] > 100 µM | [19] > 100 µM | [10] > 100 µM | [11] 22.2 µM | [12] 45.5 µM | [13] > 100 µM | [14] 98.9 µM | [15] > 100 µM | [16] 93.1 µM | [17] 65 µM

CCOC(=O)C(NC(=O)CC)(Nc1ccc(F)cc1F)C(F)(F)F (configuration not stated)
inactive: [18] > 100 µM | [2] > 100 µM | [4] > 100 µM | [6] 85.7 µM | [7] > 100 µM | [8] > 100 µM | [9] > 100 µM | [19] > 100 µM | [10] > 100 µM | [12] > 100 µM | [13] > 100 µM | [14] > 100 µM | [15] > 100 µM | [16] > 100 µM | [17] 60.4 µM

C=C(Br)C[N+]12CN3CN(CN(C3)C1)C2
inactive: [1] > 100 µM | [18] > 100 µM | [2] > 100 µM | [3] > 100 µM | [4] > 100 µM | [5] > 100 µM | [6] > 100 µM | [8] > 100 µM | [9] > 100 µM | [19] > 100 µM | [10] > 100 µM | [11] > 100 µM | [12] > 100 µM | [13] > 100 µM | [14] > 100 µM | [15] > 100 µM | [16] > 100 µM | [17] > 100 µM

CN1C(=O)C(/C=N/NC(=O)c2cccnc2)C(N)N(C)C1=O (configuration not stated)
inactive: [1] > 100 µM | [18] > 100 µM | [2] > 100 µM | [3] > 100 µM | [5] > 100 µM | [6] > 100 µM | [7] > 100 µM | [8] > 100 µM | [9] > 100 µM | [10] > 100 µM | [12] > 100 µM | [13] > 100 µM | [14] > 100 µM | [15] > 100 µM | [16] > 100 µM | [17] > 100 µM

CC(C)=Nn1cnc(C(=N)C#N)c1N
inactive: [1] > 100 µM | [18] > 100 µM | [2] > 100 µM | [3] > 100 µM | [6] > 100 µM | [7] > 100 µM | [8] > 100 µM | [9] > 100 µM | [10] > 100 µM | [12] > 100 µM | [13] > 100 µM | [14] > 100 µM | [15] > 100 µM | [16] > 100 µM | [17] > 100 µM

CC(=O)c1sc(Nc2ccc(Cl)c(Cl)c2)nc1C
inactive: [1] > 100 µM | [18] > 100 µM | [2] > 100 µM | [4] > 100 µM | [5] 21 µM | [6] > 100 µM | [7] > 100 µM | [9] > 100 µM | [19] 32.4 µM | [10] > 100 µM | [12] 5.64 µM | [13] > 100 µM | [14] 76.4 µM | [15] 68.5 µM | [16] 64.4 µM

COc1cc(-c2cc(=O)c3c(OC)c(OC)c(OC)c(OC)c3o2)cc(OC)c1OC [HEPATAMETHOXYFLAVONE]
inactive: [1] 32.4 µM | [18] 30.3 µM | [2] 3.87 µM | [3] 19.1 µM | [4] 25.9 µM | [5] 31.6 µM | [6] 55 µM | [7] 48.6 µM | [9] 44.8 µM | [19] 21.2 µM | [10] 52.2 µM | [11] 9.98 µM | [12] 48.4 µM | [13] 18.7 µM | [14] 35.9 µM | [15] 40 µM | [16] 26.1 µM | [17] 63.4 µM
